Values belong to the sequence of their own block, whether it stands above or below them. e = 2'-O-(2-methoxyethyl) (MOE); k = constrained ethyl (cEt); d = 2'-deoxy (DNA); m = 2'-O-methyl; f = 2'-fluoro
Test system: AMPA-R
Assay: [3H]AMPA radioligand binding assay on rat brain synaptic membranes;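 note: competition binding in which test compounds at rising concentrations displace [3H]AMPA from AMPA-R on rat brain synaptic membranes, with reduced bound radioligand as read-out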
Details: for % Inhibition @ Concentration 100 uM: Table 8 (3′-terminal nucleobase/sugar variants); for % Inhibition @ Concentration 0.1 uM: Table 8, 0.1 uM; for % Inhibition @ Concentration 1 uM: Table 8, 1 uM; for % Inhibition @ Concentration 10 uM: Table 8, 10 uM

Sequence: USASAMGCSASCSUMUMUSGS (antisense UAAGCACUUUG; cEt at 1, 2, 5, 6, 7, 10, 11, 2'-O-methyl at 3, 8, 9, other sugars and backbone not given here) [RG-NG-1005]
IC50 (Experiment #1): > 100 µM | % Inhibition @ 0.1 uM (Experiment #1, 0.1 uM): 10.8% | % Inhibition @ 1 uM (Experiment #1, 1 uM): −1.3% | % Inhibition @ 10 uM (Experiment #1, 10 uM): 0.8% | % Inhibition @ 100 uM (Experiment #1, 100 uM): 28.3%

Sequence: ASGSCSASCSUSUSUS [RG-NG-1002]
IC50 (Experiment #1): > 100 µM | % Inhibition @ 0.1 uM (Experiment #1, 0.1 uM): 0% | % Inhibition @ 1 uM (Experiment #1, 1 uM): −2.0% | % Inhibition @ 10 uM (Experiment #1, 10 uM): −16.9% | % Inhibition @ 100 uM (Experiment #1, 100 uM): 24.0% | IC50 (Experiment #2): > 100 µM | % Inhibition @ 0.1 uM (Experiment #2, 0.1 uM): −5.5% | % Inhibition @ 1 uM (Experiment #2, 1 uM): 4.6% | % Inhibition @ 10 uM (Experiment #2, 10 uM): −2.1% | % Inhibition @ 100 uM (Experiment #2, 100 uM): 24.6%

Sequence: ASCSTGSUSAASGSCMAFCFUFUMUSCS (ACTGUAAGCACUUUC; cEt at 1, 2, 4, 5, 7, 8, 14, 15, 2'-O-methyl at 9, 13, 2'-fluoro at 10, 11, 12, other sugars and backbone not given here) [RG-NG-1019]
IC50 (Experiment #3): > 100 µM | % Inhibition @ 0.1 uM (Experiment #3, 0.1 uM): 12.9% | % Inhibition @ 1 uM (Experiment #3, 1 uM): 17.2% | % Inhibition @ 10 uM (Experiment #3, 10 uM): 15.6% | % Inhibition @ 100 uM (Experiment #3, 100 uM): 21%

Sequence: USASASGSCSASCSUSUSUSGS [RG-NG-1004]
IC50 (Experiment #1): 17.3 µM | % Inhibition @ 0.1 uM (Experiment #1, 0.1 uM): −4.7% | % Inhibition @ 1 uM (Experiment #1, 1 uM): 4.7% | % Inhibition @ 10 uM (Experiment #1, 10 uM): 44.2% | % Inhibition @ 100 uM (Experiment #1, 100 uM): 76.1%

Sequence: ALGLCLALCLTLTLTLGL [RG-NG-1006]
IC50 (Experiment #1): 2.77 µM | % Inhibition @ 0.1 uM (Experiment #1, 0.1 uM): 6.7% | % Inhibition @ 1 uM (Experiment #1, 1 uM): 35.3% | % Inhibition @ 10 uM (Experiment #1, 10 uM): 68.9% | % Inhibition @ 100 uM (Experiment #1, 100 uM): 93.9%

Sequence: ASGSCMAFCFUFUMUSAM [RG-NG-1038]
IC50 (Table 8): 8.23 µM | % Inhibition @ Concentration 100 uM: 81.3% | % Inhibition @ Concentration 0.1 uM: 17.9% | % Inhibition @ Concentration 1 uM: 25.4% | % Inhibition @ Concentration 10 uM: 47.4%

Sequence: AEGECMAFCFUFUMUSGS [RG-NG-1010]
IC50 (Experiment #2): 3.44 µM | % Inhibition @ 0.1 uM (Experiment #2, 0.1 uM): 0.7% | % Inhibition @ 1 uM (Experiment #2, 1 uM): 31.3% | % Inhibition @ 10 uM (Experiment #2, 10 uM): 70.1% | % Inhibition @ 100 uM (Experiment #2, 100 uM): 86.4%

Sequence: ASGSCFAFCFUFUFUSGS [RG-NG-1007]
IC50 (Experiment #2): 1.69 µM | % Inhibition @ 0.1 uM (Experiment #2, 0.1 uM): 3.1% | % Inhibition @ 1 uM (Experiment #2, 1 uM): 39.7% | % Inhibition @ 10 uM (Experiment #2, 10 uM): 83.2% | % Inhibition @ 100 uM (Experiment #2, 100 uM): 94.3%

Sequence: ASGSCMASCMUSUMUSGS [RG-NG-1003]
IC50 (Experiment #1): 9.26 µM | % Inhibition @ 0.1 uM (Experiment #1, 0.1 uM): 5.7% | % Inhibition @ 1 uM (Experiment #1, 1 uM): 13.9% | % Inhibition @ 10 uM (Experiment #1, 10 uM): 56.9% | % Inhibition @ 100 uM (Experiment #1, 100 uM): 77.8%

Sequence: TEAASGSCMAFCFUFUMUSCS (TAAGCACUUUC; 2'-MOE at 1, cEt at 3, 4, 10, 11, 2'-O-methyl at 5, 9, 2'-fluoro at 6, 7, 8, other sugars and backbone not given here) [RG-NG-1021]
IC50 (Experiment #3): > 100 µM | % Inhibition @ 0.1 uM (Experiment #3, 0.1 uM): −2% | % Inhibition @ 1 uM (Experiment #3, 1 uM): −10.9% | % Inhibition @ 10 uM (Experiment #3, 10 uM): −11.5% | % Inhibition @ 100 uM (Experiment #3, 100 uM): −1.5%

Sequence: ALGLCMAFCFUFUMUSGS [RG-NG-1011]
IC50 (Experiment #2): 2.56 µM | % Inhibition @ 0.1 uM (Experiment #2, 0.1 uM): −2.2% | % Inhibition @ 1 uM (Experiment #2, 1 uM): 30.6% | % Inhibition @ 10 uM (Experiment #2, 10 uM): 78.5% | % Inhibition @ 100 uM (Experiment #2, 100 uM): 94%

Sequence: TEGSTEAASGSCMAFCFUFUMUSCS (TGTAAGCACUUUC; anti-miR; 2'-MOE at 1, 3, cEt at 2, 5, 6, 12, 13, 2'-O-methyl at 7, 11, 2'-fluoro at 8, 9, 10, other sugars and backbone not given here) [RG-NG-1020]
IC50 (Experiment #3): > 100 µM | % Inhibition @ 0.1 uM (Experiment #3, 0.1 uM): 17% | % Inhibition @ 1 uM (Experiment #3, 1 uM): 6.6% | % Inhibition @ 10 uM (Experiment #3, 10 uM): −23.3% | % Inhibition @ 100 uM (Experiment #3, 100 uM): −7.9%

Sequence: CETEGSCEAECETEGSTEADASGSCMAFCFUFUMUSGS (CTGCACTGTAAGCACUUUG; sugars from the 5' end eekeeeekedkkmfffmkk, backbone and methylation of C not given here) [RG-NG-1040]
IC50 (Table 8): 28.6 µM | % Inhibition @ Concentration 100 uM: 64.1% | % Inhibition @ Concentration 0.1 uM: 10.4% | % Inhibition @ Concentration 1 uM: 14.4% | % Inhibition @ Concentration 10 uM: 38.9%

Other lines, results leading:

IC50 (Table 8): 1.2 µM | % Inhibition @ Concentration 100 uM: 99.7% | % Inhibition @ Concentration 0.1 uM: 14.3% | % Inhibition @ Concentration 1 uM: 44.8% | % Inhibition @ Concentration 10 uM: 85.2%
Sequence: ASGSCMAFCFUFUMUSGM [RG-NG-1034]

IC50 (Experiment #2): > 100 µM | % Inhibition @ 0.1 uM (Experiment #2, 0.1 uM): −2.2% | % Inhibition @ 1 uM (Experiment #2, 1 uM): 2.3% | % Inhibition @ 10 uM (Experiment #2, 10 uM): −2.2% | % Inhibition @ 100 uM (Experiment #2, 100 uM): 3%
Sequence: ASGSCSAFCFUFUMUSCS [RG-NG-1027]

IC50 (Table 8): 0.76 µM | % Inhibition @ Concentration 100 uM: 98.5% | % Inhibition @ Concentration 0.1 uM: 27.2% | % Inhibition @ Concentration 1 uM: 46.3% | % Inhibition @ Concentration 10 uM: 91.3%
Sequence: ASGSCMAFCFUFUMUSIM [RG-NG-1035]

IC50 (Table 8): 18.6 µM | % Inhibition @ Concentration 100 uM: 78.1% | % Inhibition @ Concentration 0.1 uM: 19.2% | % Inhibition @ Concentration 1 uM: 11.3% | % Inhibition @ Concentration 10 uM: 36.2%
Sequence: ASGSCMAFCFUFUMUSNM [RG-NG-1036]

IC50 (Experiment #2): > 100 µM | % Inhibition @ 0.1 uM (Experiment #2, 0.1 uM): −4.3% | % Inhibition @ 1 uM (Experiment #2, 1 uM): 1% | % Inhibition @ 10 uM (Experiment #2, 10 uM): 2.7% | % Inhibition @ 100 uM (Experiment #2, 100 uM): 16.7%
Sequence: AMAMGLCLALCLUMTLUM [RG-NG-1031]

% Inhibition @ Concentration 100 uM: 30.2% | % Inhibition @ Concentration 0.1 uM: 27.3% | % Inhibition @ Concentration 1 uM: 27% | % Inhibition @ Concentration 10 uM: 35.8%
Sequence: ASGSCMAFCFUFUMUSED [RG-NG-1039]

IC50 (Experiment #2): > 100 µM | % Inhibition @ 0.1 uM (Experiment #2, 0.1 uM): 2.9% | % Inhibition @ 1 uM (Experiment #2, 1 uM): 6.5% | % Inhibition @ 10 uM (Experiment #2, 10 uM): 15% | % Inhibition @ 100 uM (Experiment #2, 100 uM): 1.9%
Sequence: AMAMGLCLALCLUMTLUCM [RG-NG-1030]

IC50 (Experiment #2): > 100 µM | % Inhibition @ 0.1 uM (Experiment #2, 0.1 uM): −3.8% | % Inhibition @ 1 uM (Experiment #2, 1 uM): −5.6% | % Inhibition @ 10 uM (Experiment #2, 10 uM): 3.7% | % Inhibition @ 100 uM (Experiment #2, 100 uM): 37.2%
Sequence: ASASGSCMAFCFUFUMUS [RG-NG-1013]

IC50 (Experiment #2): > 100 µM | % Inhibition @ 0.1 uM (Experiment #2, 0.1 uM): 0.9% | % Inhibition @ 1 uM (Experiment #2, 1 uM): 15.9% | % Inhibition @ 10 uM (Experiment #2, 10 uM): 7% | % Inhibition @ 100 uM (Experiment #2, 100 uM): 38.4%
Sequence: AMGLCLALCLUMTLUCM [RG-NG-1029]

IC50 (Table 8): ≥ 100 µM | % Inhibition @ Concentration 100 uM: 10.7% | % Inhibition @ Concentration 0.1 uM: 11.1% | % Inhibition @ Concentration 1 uM: 9.2% | % Inhibition @ Concentration 10 uM: 2.4%
Sequence: ASGSCMAFCFUFUMUSDM [RG-NG-1037]

IC50 (Experiment #2): 2.56 µM | % Inhibition @ 0.1 uM (Experiment #2, 0.1 uM): 9.9% | % Inhibition @ 1 uM (Experiment #2, 1 uM): 38.5% | % Inhibition @ 10 uM (Experiment #2, 10 uM): 69% | % Inhibition @ 100 uM (Experiment #2, 100 uM): 88.3%
Sequence: ASGLCMAFCFUFUMTLGS [RG-NG-1012]

IC50 (Experiment #2): > 100 µM | % Inhibition @ 0.1 uM (Experiment #2, 0.1 uM): 14.9% | % Inhibition @ 1 uM (Experiment #2, 1 uM): −5.5% | % Inhibition @ 10 uM (Experiment #2, 10 uM): 8.6% | % Inhibition @ 100 uM (Experiment #2, 100 uM): 20.4%
Sequence: ASGSCMAFCFUFUMUS [RG-NG-1014]

IC50 (Experiment #2): > 100 µM | % Inhibition @ 0.1 uM (Experiment #2, 0.1 uM): 15.7% | % Inhibition @ 1 uM (Experiment #2, 1 uM): 2.1% | % Inhibition @ 10 uM (Experiment #2, 10 uM): 2% | % Inhibition @ 100 uM (Experiment #2, 100 uM): 2.7%
Sequence: ASGSCSALCFUFUMUSCS [RG-NG-1028]

IC50 (Table 8): 0.13 µM | % Inhibition @ Concentration 100 uM: 97.3% | % Inhibition @ Concentration 0.1 uM: 44.9% | % Inhibition @ Concentration 1 uM: 80.9% | % Inhibition @ Concentration 10 uM: 96.5%
Sequence: ASGSCMAFCFUFUMUSGD [RG-NG-1033]

IC50 (Experiment #3): 1.85 µM | % Inhibition @ 0.1 uM (Experiment #3, 0.1 uM): −3.8% | % Inhibition @ 1 uM (Experiment #3, 1 uM): 36.5% | % Inhibition @ 10 uM (Experiment #3, 10 uM): 84.1% | % Inhibition @ 100 uM (Experiment #3, 100 uM): 96.4%
Sequence: ASGSCMAFCFUFUMUSGE [RG-NG-1025]

IC50 (Experiment #3): 3.12 µM | % Inhibition @ 0.1 uM (Experiment #3, 0.1 uM): 3.1% | % Inhibition @ 1 uM (Experiment #3, 1 uM): 25.6% | % Inhibition @ 10 uM (Experiment #3, 10 uM): 75.2% | % Inhibition @ 100 uM (Experiment #3, 100 uM): 95.3%
Sequence: AFGSCMAFCFUFUMUSGE [RG-NG-1023]

IC50 (Experiment #3): > 100 µM | % Inhibition @ 0.1 uM (Experiment #3, 0.1 uM): −17% | % Inhibition @ 1 uM (Experiment #3, 1 uM): −4.7% | % Inhibition @ 10 uM (Experiment #3, 10 uM): 6.5% | % Inhibition @ 100 uM (Experiment #3, 100 uM): 35.2%
Sequence: ASGSCMAFCFUFUMTEGE [RG-NG-1024]

From US12559750B2, “Methods and compositions for treatment of polycystic kidney disease” (Regulus Therapeutics Inc., priority 2021, dated 2026)
